Measurements reported in patent publication US20250360152A1, “NUTRITIONAL COMPOSITION FOR PREVENTING BRONCHITIS” (MEGMILK SNOW BRAND Co., Ltd., priority 2022, published 2025).

Columns and labels:
[1] = tested on: onset of bronchitis in infants; experiment: Logistic regression: breast milk carbohydrate component concentrations vs onset of bronchitis in infants during first year of life (153 samples); assay type: in vivo, human; details: for Odds ratio: concentration in breast milk vs onset of infant bronchitis within one year, adjusted for sex, siblings, method of delivery, birth weight; for Relationship between concentration and the onset of bronchitis (in words) / Regression coefficient: logistic regression; for Regression coefficient: concentration in breast milk vs onset of infant bronchitis
Protocol: Various carbohydrate components were measured for 153 breast milk samples, analyzing a relationship with a presence or absence of the onset of bronchitis in infants during the first year of life using a logistic regression.
(§1) Bean Stalk Snow Co., Ltd. Conducted a prospective cohort study (UMIN ID 000015494) from 2014 to 2019 for investigating the relationship between the breast milk components of Japanese and a health status of mothers and children in Japan. In the study, breast milk samples collected from 1,210 mothers and questionnaire results of investigating the health status of mothers and children were used in the study. In addition, 200 samples were randomly selected from the 1,210 samples. The breast milk collected between 1 and 2 months after childbirth was used as the breast milk samples for analysis. Parents filled out questionnaires investigating the health status of their infants six times in total, every two months for one year after birth, and the results were collected. From the questionnaire results, the results were compiled of whether or not the infants were diagnosed with the bronchitis by a doctor within one year after the childbirth. If a description of a presence or absence of the onset of bronchitis was unclear, they were excluded from the study.
(§2) As a result, in the questionnaires conducted six times in total in a year, for 153 samples, questionnaires were answered correctly about whether the infants had been diagnosed with the bronchitis, and the samples became subjects to be analyzed in the study. Of the 153 samples, 18 samples were from infants diagnosed with the bronchitis within one year of birth.
For the 153 breast milk samples, the relationship between the concentrations of N-acetylneuraminic acid, the oligosaccharide, the N-linked glycan, the O-linked glycan, the disialo N-linked glycan A, and the disialo N-linked glycan B and the onset of infant bronchitis was analyzed using the logistic regression. Sex of the infant, a presence or absence of siblings, the method of delivery (natural birth, cesarean section), and a birth weight were used as adjustment factors.

[2] = tested on: onset of bronchitis in infants; experiment: Two-group comparison of breast milk concentrations (infants ever vs never contracted bronchitis) and Fisher's exact test at a cut-off concentration; assay type: in vivo, human; details: for Concentration in the breast milk that reduces the risk of contracting the bronchitis: cut-off of Fisher's exact test; for Concentration in breast milk consumed by infants who had never contracted bronchitis versus infants who had ever contracted bronchitis: two groups, FIG. 1-5
Excerpt: as §1, §2
The breast milk samples were divided into two groups, based on whether or not the infants had ever contracted the bronchitis, comparing the total N-acetylneuraminic acids concentrations in the breast milk. […] A distribution range of the total N-acetylneuraminic acids concentrations in the breast milk consumed by the infants who had never contracted the bronchitis was 181-977 mg/L, with a median of 395 mg/L (Table 2). The distribution of the total N-acetylneuraminic acids concentrations was, different from a normal distribution, a distribution spreading out its tail towards its higher end of concentrations. Such a distribution is seen in the distribution of heights and weights of the infants, and the 3rd to 97th percentile of the overall distribution is used as standards when creating growth curves for infants (Infant Physical Development Survey Report 2000). Based on this, the 3rd to 97th percentile was used as a standard range of the total N-acetylneuraminic acids concentrations in the breast milk. A minimum value of the total N-acetylneuraminic acid concentration in the breast milk consumed by the infants who had never contracted the bronchitis was 221 mg/L corresponding to the 3rd percentile of the distribution.

| Compound | Odds ratio [1] | Relationship between concentration and the onset of bronchitis (in words) [1] | Regression coefficient [1] | Concentration in the breast milk that reduces the risk of contracting the bronchitis [2] | Concentration in breast milk consumed by infants who had never contracted bronchitis versus infants who had ever contracted bronchitis [2] | Regression coefficient ([1]; listed as disialo N-linked glycan B) | Regression coefficient ([1]; listed as disialo N-linked glycan A) |
| --- | --- | --- | --- | --- | --- | --- | --- |
| CC(=O)N[C@H]1[C@H]([C@H](O)[C@H](O)CO)O[C@@](O[C@H]2[C@@H](O)[C@@H](CO)O[C@@H](O[C@H]3[C@H](O)[C@@H](O)C(O)O[C@@H]3CO)[C@@H]2O)(C(=O)O)C[C@@H]1O (some centres unmarked) [3′-SL, 3′-sialyllactose, reference compound] | 0.53 | not observed | −0.626 |  |  |  |  |
| CC(=O)N[C@H]1[C@H]([C@H](O)[C@H](O)CO)OC(O)(C(=O)O)C[C@@H]1O (some centres unmarked) [Total N-acetylneuraminic acid, N-acetylneuraminic acid] | 0.098 | statistically significant relationship | −2.32 | ≥ 246 mg/L | significantly higher |  |  |
| Neu5Acα2-6Galβ1-4GlcNAcβ1-2Manα1-3 (Neu5Acα2-6Galβ1-4GlcNAcβ1-2Manα1-6) Manβ1-4GlcNAcβ1-4 (Fucα1-6) GlcNAc [Disialo N-linked glycan B] | 0.24 |  | −1.407 | ≥ 0.245 µmol/L | significantly higher | negative |  |
| CC(=O)N[C@H]1[C@H]([C@H](O)[C@H](O)CO)O[C@@](OC[C@H]2O[C@@H](O[C@H]3[C@H](O)[C@@H](O)[C@H](O)O[C@@H]3CO)[C@H](O)[C@@H](O)[C@H]2O)(C(=O)O)C[C@@H]1O [6′-SL, 6′-sialyllactose] |  |  |  | ≥ 135 mg/L | significantly higher |  |  |
| Neu5Acα2-6Galβ1-4GlcNAcβ1-2Manαl-3 (Neu5Acα2-6Galβ1-4GlcNAcβ1-2Manα1-6) Manβ1-4GlcNAcβ1-4GlcNAc [Disialo N-linked glycan A] | 0.15 |  | −1.918 | ≥ 0.313 µmol/L | significantly higher |  | negative |
